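Where inhibition never reached the appropriate level, the endpoint shown equals the highest concentration tested. Otherwise, values were interpolated linearly from a five-concentration, 48-hour dose response in 96-well plates. GI50 marks 50% less growth.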 Calls of active or inactive are those of the source. Rule as the data show it: active = GI50 up to about 1.1 µM and inactive = higher.
Assays:
Assay in all cases: DTP human tumour cell line panel, 48 h
NCI-H460 = system: NCI-H460
SK-MEL-2 = system: SK-MEL-2
K562 = system: K562
SF-295 = system: SF-295
UACC-62 = system: UACC-62
OVCAR-3 = system: OVCAR-3
ACHN = system: ACHN
U-251 = system: U-251
MOLT-4 = system: MOLT-4
OVCAR-8 = system: OVCAR-8
LOX IMVI = system: LOX IMVI
SK-OV-3 = system: SK-OV-3
NCI-H522 = system: NCI-H522
A549 = system: A549
HOP-62 = system: HOP-62
HCC 2998 = system: HCC 2998

Compound	GI50 (NCI-H460)	GI50 (SK-MEL-2)	GI50 (K562)	GI50 (SF-295)	GI50 (UACC-62)	GI50 (OVCAR-3)	GI50 (ACHN)	GI50 (U-251)	GI50 (MOLT-4)	GI50 (OVCAR-8)	GI50 (LOX IMVI)	GI50 (SK-OV-3)	GI50 (NCI-H522)	GI50 (A549)	GI50 (HOP-62)	GI50 (HCC 2998)
Cc1cc(NS(=O)(=O)c2ccc(NC(=O)c3ccc(Cl)c4c(Nc5ccc(S(=O)(=O)Nc6cc(C)on6)cc5)c5ccccc5nc34)cc2)no1	21 µM (inactive)	20.9 µM (inactive)	23.2 µM (inactive)	23.8 µM (inactive)	14.4 µM (inactive)	16.6 µM (inactive)	19 µM (inactive)	16.2 µM (inactive)	29 µM (inactive)	46 µM (inactive)	18.5 µM (inactive)	19.2 µM (inactive)	11.8 µM (inactive)	25.6 µM (inactive)	23.3 µM (inactive)	–
O=C1O[C@H](C(Cl)(Cl)Cl)N2CCCC12 (some centres not stated)	> 100 µM (inactive)	> 100 µM (inactive)	> 100 µM (inactive)	> 100 µM (inactive)	> 100 µM (inactive)	> 100 µM (inactive)	> 100 µM (inactive)	> 100 µM (inactive)	> 100 µM (inactive)	> 100 µM (inactive)	> 100 µM (inactive)	> 100 µM (inactive)	> 100 µM (inactive)	> 100 µM (inactive)	> 100 µM (inactive)	–
C(/C=C/N1CCCC1)=C\c1nc(N2CCCC2)c2ccccc2n1	18.2 µM (inactive)	22.1 µM (inactive)	12.5 µM (inactive)	20.4 µM (inactive)	21.2 µM (inactive)	15.7 µM (inactive)	16.9 µM (inactive)	–	17.3 µM (inactive)	34.1 µM (inactive)	17.5 µM (inactive)	18.6 µM (inactive)	–	48.5 µM (inactive)	19.5 µM (inactive)	17.4 µM (inactive)
C1CC2=C(C1)C1=S(S2)SC2=C1CCC2	> 100 µM (inactive)	> 100 µM (inactive)	> 100 µM (inactive)	> 100 µM (inactive)	> 100 µM (inactive)	> 100 µM (inactive)	45.7 µM (inactive)	> 100 µM (inactive)	> 100 µM (inactive)	> 100 µM (inactive)	> 100 µM (inactive)	> 100 µM (inactive)	> 100 µM (inactive)	> 100 µM (inactive)	–	> 100 µM (inactive)
CCOc1ccc(/N=N/c2ccc3oc(=O)c(C(=O)Nc4ccc(OC)cc4)cc3c2)cc1	–	18.6 µM (inactive)	8.38 µM (inactive)	31.2 µM (inactive)	11.7 µM (inactive)	19.5 µM (inactive)	–	14.1 µM (inactive)	4.07 µM (inactive)	12.7 µM (inactive)	11.4 µM (inactive)	41.9 µM (inactive)	21.8 µM (inactive)	40.1 µM (inactive)	21.9 µM (inactive)	10.8 µM (inactive)
C/C=C/C=N/N(c1nnc(-c2ccccc2)c(-c2ccccc2)n1)S(=O)(=O)c1ccc(C)cc1	11.1 µM (inactive)	11.4 µM (inactive)	6.37 µM (inactive)	11 µM (inactive)	3.33 µM (inactive)	12.6 µM (inactive)	11.8 µM (inactive)	4.04 µM (inactive)	3.18 µM (inactive)	5.53 µM (inactive)	3.6 µM (inactive)	18.7 µM (inactive)	4.75 µM (inactive)	12 µM (inactive)	–	17 µM (inactive)
Cn1c2c(c3ccccc31)CCN(CCCCN1CCN(c3cccc(Cl)c3)CC1)C2=O	13.4 µM (inactive)	16.7 µM (inactive)	4.45 µM (inactive)	16.1 µM (inactive)	11.4 µM (inactive)	15.5 µM (inactive)	14.9 µM (inactive)	11.6 µM (inactive)	7.62 µM (inactive)	17.8 µM (inactive)	–	16.3 µM (inactive)	12.3 µM (inactive)	20.5 µM (inactive)	15.2 µM (inactive)	–
O=C(/C=C/c1ccccc1)c1ccc(Cl)cc1Cl	17.6 µM (inactive)	–	10 µM (inactive)	19.9 µM (inactive)	15.9 µM (inactive)	20 µM (inactive)	18.2 µM (inactive)	19.6 µM (inactive)	18.1 µM (inactive)	15.1 µM (inactive)	–	46.9 µM (inactive)	13.4 µM (inactive)	25.8 µM (inactive)	94.4 µM (inactive)	23.3 µM (inactive)
CC(=O)Oc1c(Br)ccc2cc(C(Br)Br)c(C(=O)c3ccccc3)nc12	19.9 µM (inactive)	20.7 µM (inactive)	20.2 µM (inactive)	18.7 µM (inactive)	20 µM (inactive)	> 10 µM (inactive)	22.1 µM (inactive)	19.2 µM (inactive)	20.7 µM (inactive)	23.6 µM (inactive)	23.9 µM (inactive)	–	4.21 µM (inactive)	24.3 µM (inactive)	19.1 µM (inactive)	17.9 µM (inactive)
C1OCC2S[C@@H]3COCO[C@@H]3C2O1 (some centres not stated)	> 100 µM (inactive)	–	> 100 µM (inactive)	> 100 µM (inactive)	> 100 µM (inactive)	> 100 µM (inactive)	> 100 µM (inactive)	> 100 µM (inactive)	> 100 µM (inactive)	> 100 µM (inactive)	> 100 µM (inactive)	> 100 µM (inactive)	> 100 µM (inactive)	> 100 µM (inactive)	> 100 µM (inactive)	> 100 µM (inactive)
COC(=O)/C(C#N)=C1\NN=NN1CCCN1CCOCC1	> 100 µM (inactive)	–	> 100 µM (inactive)	> 100 µM (inactive)	> 100 µM (inactive)	> 100 µM (inactive)	> 100 µM (inactive)	> 100 µM (inactive)	> 100 µM (inactive)	> 100 µM (inactive)	> 100 µM (inactive)	> 100 µM (inactive)	> 100 µM (inactive)	> 100 µM (inactive)	–	> 100 µM (inactive)
C=C(C)C1CC[C@]2(C(=O)O)CCC3(C)[C@H](CCC4[C@@]5(C)CC[C@H](OC6OC(CO)C(O)C6OC6OC(C)C(O)C(O)C6O)[C@@](C)(CO)C5CC[C@]43C)C12 (some centres not stated)	> 100 µM (inactive)	> 100 µM (inactive)	> 100 µM (inactive)	> 100 µM (inactive)	> 100 µM (inactive)	> 100 µM (inactive)	> 100 µM (inactive)	> 100 µM (inactive)	> 100 µM (inactive)	> 100 µM (inactive)	> 100 µM (inactive)	–	88.1 µM (inactive)	> 100 µM (inactive)	> 100 µM (inactive)	> 100 µM (inactive)
COc1ccc2c(c1)CC1c3c(cc4c(c3-2)OCO4)CCN1C (configuration not stated)	24.3 µM (inactive)	26.5 µM (inactive)	23.3 µM (inactive)	21.6 µM (inactive)	21.6 µM (inactive)	32.5 µM (inactive)	16.9 µM (inactive)	31.6 µM (inactive)	20 µM (inactive)	21.6 µM (inactive)	–	21.3 µM (inactive)	15.6 µM (inactive)	21.4 µM (inactive)	30.1 µM (inactive)	41.1 µM (inactive)
COc1nc(NC2OCC(OC(C)=O)C(OC(C)=O)C2OC(C)=O)c(/N=C\C=N\c2c(NC3OCC(OC(C)=O)C(OC(C)=O)C3OC(C)=O)nc(OC)n(C)c2=O)c(=O)n1C (configuration not stated)	> 100 µM (inactive)	> 100 µM (inactive)	> 100 µM (inactive)	> 100 µM (inactive)	> 100 µM (inactive)	> 100 µM (inactive)	> 100 µM (inactive)	> 100 µM (inactive)	–	> 100 µM (inactive)	> 100 µM (inactive)	> 100 µM (inactive)	> 100 µM (inactive)	> 100 µM (inactive)	> 100 µM (inactive)	> 100 µM (inactive)
CC(C)=CCCc1c(C)ccc2c1C(=O)C(=O)C(C(C)C)=C2	10.7 µM (inactive)	4.1 µM (inactive)	3.87 µM (inactive)	> 22 µM (inactive)	–	3.76 µM (inactive)	3.8 µM (inactive)	> 22 µM (inactive)	1.36 µM (inactive)	3.85 µM (inactive)	–	> 22 µM (inactive)	3.4 µM (inactive)	> 22 µM (inactive)	–	> 22 µM (inactive)
CCCCC1CC(c2cccc([N+](=O)[O-])c2)=NO1 (configuration not stated)	75.5 µM (inactive)	> 100 µM (inactive)	60.8 µM (inactive)	97.7 µM (inactive)	54.8 µM (inactive)	76.2 µM (inactive)	> 100 µM (inactive)	83.2 µM (inactive)	36.4 µM (inactive)	70.3 µM (inactive)	–	> 100 µM (inactive)	29.5 µM (inactive)	30.5 µM (inactive)	> 100 µM (inactive)	58.5 µM (inactive)
C/C(=N/O)c1sc(-c2nc(C)c(/C(C)=N\O)s2)nc1C	–	–	> 100 µM (inactive)	> 100 µM (inactive)	> 100 µM (inactive)	> 100 µM (inactive)	> 100 µM (inactive)	> 100 µM (inactive)	> 100 µM (inactive)	> 100 µM (inactive)	> 100 µM (inactive)	> 100 µM (inactive)	–	> 100 µM (inactive)	–	> 100 µM (inactive)
CC(C)=C1CCC(CN(C)C)C1=O (configuration not stated)	> 100 µM (inactive)	26.3 µM (inactive)	6.08 µM (inactive)	> 100 µM (inactive)	18.1 µM (inactive)	17.6 µM (inactive)	17.7 µM (inactive)	> 100 µM (inactive)	12.1 µM (inactive)	22.3 µM (inactive)	–	–	0.196 µM (active)	> 100 µM (inactive)	–	19.1 µM (inactive)
O=C(O)CCC1CCc2cccc(OCC(=O)O)c2C1=O (configuration not stated)	> 100 µM (inactive)	–	> 100 µM (inactive)	> 100 µM (inactive)	> 100 µM (inactive)	> 100 µM (inactive)	> 100 µM (inactive)	> 100 µM (inactive)	> 100 µM (inactive)	> 100 µM (inactive)	> 100 µM (inactive)	> 100 µM (inactive)	–	> 100 µM (inactive)	> 100 µM (inactive)	> 100 µM (inactive)
